Values of other authors in patent US20090099252A1, “NOVEL L[…] AS THERAPEUTIC AGENTS” (priority 2007, published 2009).

Test system: multi-drug resistant cell line SKVLB-1
Conditions: background statement

## C=C1C[C@H](C)C[C@@H]2CC=C[C@@H](C/C=C\C(=O)O[C@H]([C@@H](O)/C=C/[C@@H]3CC(C)=CCO3)C[C@@H]3O[C@H]3[C@@H](O)C1)O2 [Laulimalide, laulimalide]
  IC50: 1.2 µM
